In test [1] the test system is LU-01-0015 xenotransplantation (PDX) from lung cancer patients. Description: In vivo efficacy, LU-01-0015 xenotransplantation (PDX) from lung cancer patients. Further details: species or system BALB/c nude mice. As to conditions: 25 mg/kg orally everyday. An excerpt:
BALB/c nude mice, female, 6 to 8 weeks, about 18 to 22 g bodyweight, was kept in a special environment without pathogens, and a single ventilated cage (5 mice per cage). Beddings and water in all the cages were disinfected before use. […] 80 mice were supplied by Shanghai BK Laboratory Animal Co., LTD for study. Each mouse was subcutaneously implanted tumor tissue (20-30 mm^3) at right flank for growth of tumor. When the average tumor volume reached about 250-300 mm^3, the assay started. Test compounds were delivered orally everyday, 25 mg/kg. Tumor size was measured with two-dimensional caliper every 3 days, size was recorded by mm^3, and calculated by the following formula: V=V=0.5a×b2, where a and b are respectively the long diameter and short diameter length of the tumor. The antitumor efficacy was determined by dividing the average increased tumor volume in compound-treated animal by the average increased tumor volume in untreated animal.

A further test deals with T1, ALK wild-type (Homo sapiens, UniProt Q9UM73).
T1 construct: purchased Carna Biosciences (Japan)
Kind of test: ALK wild-type enzymatic inhibition (HTRF). The format is biochemical. Conditions: 30 μM ATP. How it is done: (§1) Enzyme: ALK wild-type, ALK C1156Y and ALK L1196M supplied by Carna Biosciences (Japan), EGFR T790M/L858R supplied by Life technology (Madison, Wis.).
(§2) HTRF kit: supplied by Cis-Bio International, with Eu-marked TK1 antibody, XL665- and biotin-labelled TK1 polypeptide substrates.
10 μl wild-type ALK enzyme reaction mixture system: 0.5 nM wild-type ALK, 1 μM biotin-TK1 peptide, 30 μM ATP. Reaction buffer: 50 mM Hepes (pH7.5), 10 mM MgCl2, 0.01 mM NaV3VO4.
(§3) Incubation was carried out for 60 minutes at room temperature. Detection was by Envision.
Background: Time-resolved FRET reads energy transfer from a long-lived donor to a nearby acceptor.

A further test concerns the target T2, EGFR T790M/L858R (Homo sapiens, UniProt P00533, L858R/T790M).
T2 construct: purchased Life technology (Madison, Wis.)
Kind of test: EGFR T790M/L858R enzymatic inhibition (HTRF). The format is biochemical. Conditions: 20 μM ATP. How it is done: as §1, §2
The compound to be tested is diluted at a gradient by 3 times thereby giving 11 gradients starting from […] to 0.017 nM for the final concentration.
10 μl EGFR T790M/L858R enzyme reaction mixture system: 0.08 nM EGFR T790M/L858R, 1 μM biotin-TK1 peptide, 20 μM ATP. Reaction buffer: 50 mM Hepes (pH7.5), 10 mM MgCl2, 0.01 mM NaV3VO4. The reaction plate was white Proxiplate 384-Plus plate (PerkinElmer). Reaction was reacted at room temperature for 60 minutes.
Detecting reaction: 10 μl testing reagent was added to the reaction plate, the final concentration of Antibody was 2 nM, XL665 was 62.5 nM. Incubation was carried out for 60 minutes at room temperature. Detection was by Envision.

A further test concerns the target T3, ALK C1156Y (Homo sapiens, UniProt Q9UM73, C1156Y).
T3 construct: purchased Carna Biosciences (Japan)
Description: ALK C1156Y enzymatic inhibition (HTRF). The format is biochemical. Conditions: 30 μM ATP. How it is done:
as §1, §2
Reaction buffer: 50 mM Hepes (pH7.5), 10 mM MgCl2, 0.01 mM NaV3VO4. […] Reaction was reacted at room temperature for 60 minutes.
as §3

The next test deals with T4, ALK L1196M (Homo sapiens, UniProt Q9UM73, L1196M).
T4 construct: purchased Carna Biosciences (Japan)
Description: ALK L1196M enzymatic inhibition (HTRF). The format is biochemical. Conditions: 30 μM ATP. How it is done: as §1, §2
Reaction buffer: 50 mM Hepes (pH7.5), 10 mM MgCl2, 0.01 mM NaV3VO4.
as §3

Usually IC50 stands for the concentration at which inhibition is half-maximal.

SMILES strings stand for the structures. A value given as a limit tells only on which side of the number the result lay.

T2 sequence (P00533 25-1210 T790M/L858R): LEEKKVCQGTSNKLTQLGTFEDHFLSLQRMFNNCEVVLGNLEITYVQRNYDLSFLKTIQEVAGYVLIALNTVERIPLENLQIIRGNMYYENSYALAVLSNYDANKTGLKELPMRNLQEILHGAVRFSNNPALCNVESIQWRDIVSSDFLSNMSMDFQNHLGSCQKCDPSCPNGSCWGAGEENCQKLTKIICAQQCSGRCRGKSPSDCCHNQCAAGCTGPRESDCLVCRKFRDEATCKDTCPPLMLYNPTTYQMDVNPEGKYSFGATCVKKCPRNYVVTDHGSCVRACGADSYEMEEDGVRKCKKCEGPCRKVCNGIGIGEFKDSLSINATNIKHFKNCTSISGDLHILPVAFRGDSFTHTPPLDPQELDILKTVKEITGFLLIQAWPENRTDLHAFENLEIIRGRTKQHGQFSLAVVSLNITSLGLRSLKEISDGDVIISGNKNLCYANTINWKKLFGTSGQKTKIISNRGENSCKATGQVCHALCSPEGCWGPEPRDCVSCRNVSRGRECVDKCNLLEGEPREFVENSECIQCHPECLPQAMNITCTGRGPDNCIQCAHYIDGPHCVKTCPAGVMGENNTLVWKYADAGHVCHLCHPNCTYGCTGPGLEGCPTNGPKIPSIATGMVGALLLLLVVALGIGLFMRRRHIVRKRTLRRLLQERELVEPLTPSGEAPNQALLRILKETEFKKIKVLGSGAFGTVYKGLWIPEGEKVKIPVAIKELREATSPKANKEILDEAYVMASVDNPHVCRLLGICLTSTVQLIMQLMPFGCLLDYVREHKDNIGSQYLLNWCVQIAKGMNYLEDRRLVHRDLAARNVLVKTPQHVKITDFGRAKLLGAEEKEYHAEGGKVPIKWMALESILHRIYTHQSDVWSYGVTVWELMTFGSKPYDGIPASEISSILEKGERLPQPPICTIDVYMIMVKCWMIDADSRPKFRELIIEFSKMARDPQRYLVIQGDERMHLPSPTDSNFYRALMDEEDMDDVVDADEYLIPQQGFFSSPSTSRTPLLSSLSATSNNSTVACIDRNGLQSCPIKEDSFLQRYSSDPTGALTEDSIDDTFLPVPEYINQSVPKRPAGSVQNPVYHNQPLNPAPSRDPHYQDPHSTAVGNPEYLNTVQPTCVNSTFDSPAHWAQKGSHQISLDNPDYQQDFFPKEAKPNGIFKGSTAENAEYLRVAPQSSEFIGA
T4 sequence (Q9UM73 19-1620 L1196M): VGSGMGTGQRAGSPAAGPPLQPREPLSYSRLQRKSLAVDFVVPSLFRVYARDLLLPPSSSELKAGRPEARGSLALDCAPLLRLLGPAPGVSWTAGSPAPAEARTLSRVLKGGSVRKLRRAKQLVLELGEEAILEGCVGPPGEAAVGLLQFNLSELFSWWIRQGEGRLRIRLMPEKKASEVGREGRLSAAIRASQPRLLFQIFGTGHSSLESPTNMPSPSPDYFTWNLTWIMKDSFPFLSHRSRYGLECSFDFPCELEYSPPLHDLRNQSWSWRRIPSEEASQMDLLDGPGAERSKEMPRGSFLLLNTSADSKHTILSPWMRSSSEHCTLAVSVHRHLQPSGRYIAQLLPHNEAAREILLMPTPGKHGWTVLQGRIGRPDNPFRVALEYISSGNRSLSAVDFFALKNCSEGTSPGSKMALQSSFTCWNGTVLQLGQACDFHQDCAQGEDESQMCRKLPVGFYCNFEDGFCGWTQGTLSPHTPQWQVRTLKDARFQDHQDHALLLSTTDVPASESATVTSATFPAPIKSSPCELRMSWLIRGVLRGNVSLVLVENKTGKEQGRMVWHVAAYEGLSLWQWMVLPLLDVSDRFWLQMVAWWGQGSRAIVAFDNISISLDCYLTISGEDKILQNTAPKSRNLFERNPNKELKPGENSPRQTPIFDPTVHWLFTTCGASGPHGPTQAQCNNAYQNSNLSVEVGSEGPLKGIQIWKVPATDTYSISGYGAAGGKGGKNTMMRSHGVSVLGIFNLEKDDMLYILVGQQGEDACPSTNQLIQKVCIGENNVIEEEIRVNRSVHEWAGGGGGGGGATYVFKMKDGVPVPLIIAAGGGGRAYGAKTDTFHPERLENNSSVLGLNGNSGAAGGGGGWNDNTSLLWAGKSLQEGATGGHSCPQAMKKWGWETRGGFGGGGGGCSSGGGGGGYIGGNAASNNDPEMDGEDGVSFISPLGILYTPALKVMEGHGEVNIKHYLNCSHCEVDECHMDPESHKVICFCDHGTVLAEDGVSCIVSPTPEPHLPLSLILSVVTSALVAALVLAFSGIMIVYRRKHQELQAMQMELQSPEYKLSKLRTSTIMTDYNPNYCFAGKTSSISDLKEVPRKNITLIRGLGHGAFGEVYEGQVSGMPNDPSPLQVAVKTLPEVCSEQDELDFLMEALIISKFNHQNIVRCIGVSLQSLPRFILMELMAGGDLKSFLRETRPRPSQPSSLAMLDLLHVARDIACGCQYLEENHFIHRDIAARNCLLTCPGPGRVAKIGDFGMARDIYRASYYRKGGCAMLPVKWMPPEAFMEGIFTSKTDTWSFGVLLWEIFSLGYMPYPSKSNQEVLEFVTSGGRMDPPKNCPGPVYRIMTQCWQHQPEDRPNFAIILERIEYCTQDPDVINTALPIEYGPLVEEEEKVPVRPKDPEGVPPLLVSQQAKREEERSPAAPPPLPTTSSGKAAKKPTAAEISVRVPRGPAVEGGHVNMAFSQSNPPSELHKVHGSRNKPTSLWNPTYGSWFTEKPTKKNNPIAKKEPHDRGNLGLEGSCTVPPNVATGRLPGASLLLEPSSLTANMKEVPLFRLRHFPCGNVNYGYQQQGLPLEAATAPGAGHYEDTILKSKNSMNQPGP
T3 sequence (Q9UM73 19-1620 C1156Y): as the sequence (Q9UM73 19-1620 L1196M) above, with C1138Y, M1178L counted along it
T1 sequence (Q9UM73 19-1620): as the sequence (Q9UM73 19-1620 L1196M) above, with M1178L counted along it

Consider `COc1cc(N2CCC3(CC2)CN(C)C3)ccc1Nc1ncc(Cl)c(Nc2ccccc2P(C)(C)=O)n1` [Compound 5, (2-((5-Chloro-2-((2-methoxy-4-(2-methyl-2,7-diazaspiro[3.5]nonan-7-yl)phenyl)amino)pyrimidin-4-yl)amino)phenyl)dimethyl phosphine oxide], for which the Tumor volume is 259 mm^3 in test [1] (3 days); 214 mm^3 in test [1] (6 days); 172 mm^3 in test [1] (9 days); 117 mm^3 in test [1] (12 days); 104 mm^3 in test [1] (16 days); 123 mm^3 in test [1] (19 days). The same molecule had a Tumor volume in test [1] (23 days) of 124 mm^3. Besides, the IC50 on ALK wild-type, against EGFR T790M/L858R, at ALK C1156Y and against ALK L1196M was 1 to 100 nM throughout.

With `COc1cc(N2CCC3(CC2)CC(N(C)C)C3)ccc1Nc1ncc(Cl)c(Nc2ccccc2P(C)(C)=O)n1` [Compound 13, (2-((5-Chloro-2-((4-(2-(dimethylamino)-7-azaspiro[3.5]nonan-7-yl)-2-methoxyphenyl)amino)pyrimidin-4-yl)amino)phenyl)dimethyl phosphine oxide], the IC50 on ALK wild-type, at EGFR T790M/L858R, at ALK C1156Y and on ALK L1196M was 1 to 100 nM each time.

For the molecule `COc1cc(N2CCC3(CCC(N(C)C)CC3)CC2)ccc1Nc1ncc(Cl)c(Nc2ccccc2P(C)(C)=O)n1` [Compound 14, (2-((5-Chloro-2-((4-(9-(dimethylamino)-3-azaspiro[5.5]undecan-3-yl)-2-methoxyphenyl)amino)pyrimidin-4-yl)amino)phenyl)dimethyl phosphine oxide], the IC50 on ALK wild-type, on EGFR T790M/L858R, at ALK C1156Y and at ALK L1196M was 1 to 100 nM each time.

Regarding `COc1cc(N2CCC3(CCN(C)CC3)CC2)ccc1Nc1ncc(C(F)(F)F)c(Nc2ccccc2P(C)(C)=O)n1` [Compound 15, (2-((2-((2-Methoxy-4-(9-methyl-3,9-diazaspiro[5.5]undecan-3-yl)phenyl)amino)-5-(trifluoromethyl)pyrimidin-4-yl)amino)phenyl)dimethyl phosphine oxide], the IC50 against ALK wild-type was above 1000 nM; at EGFR T790M/L858R it was above 1000 nM; against ALK C1156Y, above 1000 nM; against ALK L1196M, 101 to 1000 nM.

`COc1cc(N2CCC3(CCN(C)CC3)CC2)ccc1Nc1ncnc(Nc2ccccc2P(C)(C)=O)n1` [Compound 16, (2-((4-((2-Methoxy-4-(9-methyl-3,9-diazaspiro[5.5]undecan-3-yl)phenyl)amino)-1,3,5-triazin-2-yl)amino)phenyl)dimethyl phosphine oxide]: the IC50 on ALK wild-type was 101 to 1000 nM; on EGFR T790M/L858R, 1 to 100 nM; at ALK C1156Y, 101 to 1000 nM; at ALK L1196M, 101 to 1000 nM.

On to `COc1cc(N2CCC3(CCN(C)CC3)CC2)ccc1Nc1nc(Nc2ccccc2P(C)(C)=O)c2cc[nH]c2n1` [Compound 17, (2-((2-(amino)-7H-pyrrolo[2,3-D](2-methoxy-4-(9-methyl-3,9-diazaspiro[5.5]undecan-3-yl)phenyl)pyrimidin-4-yl)amino)phenyl)dimethyl phosphine oxide], for which the IC50 against ALK wild-type, at EGFR T790M/L858R, at ALK C1156Y and at ALK L1196M was 1 to 100 nM in each case.

Take `COc1cc(N2CCC3(CCN(C)CC3)CC2)ccc1Nc1ncc(Cl)c(N(C)c2ccccc2P(C)(C)=O)n1` [Compound 18, (2-((5-Chloro-2-((2-methoxy-4-(9-methyl-3,9-diazaspiro[5.5]undecan-3-yl)phenyl)amino)pyrimidin-4-yl)(methyl)amino)phenyl)dimethyl phosphine oxide]: the IC50 against ALK wild-type, against EGFR T790M/L858R, on ALK C1156Y and against ALK L1196M was above 1000 nM throughout.

Take `COc1cc(N2CCC3(CCN(C)CC3)CC2)ccc1Nc1ncc(Cl)c(Oc2ccccc2P(C)(C)=O)n1` [Compound 19, (2-((5-Chloro-2-((2-methoxy-4-(9-methyl-3,9-diazaspiro[5.5]undecan-3-yl)phenyl)amino)pyrimidin-4-yl)oxy)phenyl)dimethyl phosphine oxide]: the IC50 at ALK wild-type, against EGFR T790M/L858R, against ALK C1156Y and on ALK L1196M was above 1000 nM in each case.

Take `COc1cc(N2CCC3(CCN(C)CC3)CC2)c(Br)cc1Nc1ncc(Cl)c(Nc2ccccc2P(C)(C)=O)n1` [Compound 21, (2-((2-((5-Bromo-2-methoxy-4-(9-methyl-3,9-diazaspiro[5.5]undecan-3-yl)phenyl)amino)-5-chloropyrimidin-4-yl)amino)phenyl)dimethyl phosphine oxide]: the IC50 against ALK wild-type, on EGFR T790M/L858R, against ALK C1156Y and against ALK L1196M was 1 to 100 nM throughout.

In the case of `COc1cc(N2CCC3(CCN(C)CC3)CC2)ncc1Nc1ncc(Cl)c(Nc2ccccc2P(C)(C)=O)n1` [Compound 24, (2-((5-Chloro-2-((4-methoxy-6-(9-methyl-3,9-diazaspiro[5.5]undecan-3-yl)pyridin-3-yl)amino)pyrimidin-4-yl)amino)phenyl)dimethyl phosphine oxide], the IC50 fell in the range of 1 to 100 nM against ALK wild-type, 101 to 1000 nM against EGFR T790M/L858R, 1 to 100 nM on ALK C1156Y and 1 to 100 nM on ALK L1196M.

With `CN1CCC2(CCC(c3ccc(Nc4ncc(Cl)c(Nc5ccccc5P(C)(C)=O)n4)c(OC(F)F)c3)CC2)CC1` [Compound 28, (2-((5-Chloro-2-((2-(difluoromethoxy)-4-(3-methyl-3-azaspiro[5.5]undecan-9-yl)phenyl)amino)pyrimidin-4-yl)amino)phenyl)dimethyl phosphine oxide], the IC50 against ALK wild-type, against EGFR T790M/L858R, on ALK C1156Y and against ALK L1196M was 1 to 100 nM in each case.

`COc1cc(C2CC3(CCN(C)CC3)C2)c(F)cc1Nc1ncc(Cl)c(Nc2ccccc2P(C)(C)=O)n1` [Compound 29, (2-((5-Chloro-2-((5-fluoro-2-methoxy-4-(7-methyl-7-azaspiro[3.5]nonan-2-yl)phenyl)amino)pyrimidin-4-yl)amino)phenyl)dimethyl phosphine oxide]: the IC50 at ALK wild-type, on EGFR T790M/L858R, at ALK C1156Y and at ALK L1196M was 1 to 100 nM each time.

Source of the values: patent US10053477B2, “Spirocyclic aryl phosphorus oxide and aryl phosphorus sulfide” (QILU PHARMACEUTICAL CO., LTD., priority 2014, dated 2018).
